Where only a bound is given, the exact number is not on record here.

Broadly, the IC50 is the concentration at which inhibition is half-maximal.

Assay [1] deals with HeLa cells. Description: Assay 1 cell proliferation measurement (CTG, 72 h), HeLa. The following applies: Homo sapiens, HeLa; Assay 1, 72 h, Cell Titer Glo; read-out: HeLa IC50 [nM] (Cervical cancer). It is filed as cell-based, human. The method, boiled down: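 Seed cells, incubate overnight at 37 °C; measure baseline viability (CTG, 0 h plate); dose compound in a 10-step 2.5-fold series (max generally 100 nM final, DMSO 0.3%) for 72 h; read CTG luminescence; fit IC50 with 4 parameters.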

Assay [2] deals with SK-MEL-3 cells. Description: Assay 1 cell proliferation measurement (CTG, 72 h), SK-MEL-3. The class given is cell-based, human. The settings on record: Homo sapiens, SK-MEL3; Assay 1, 72 h, Cell Titer Glo; read-out: SK-MEL-3 IC50 [nM] (melanoma). Here is the method:
Cell Proliferation Measurement
The antiproliferative activity of the compounds of the general formula (I) was examined in vitro in human cancer cells. For this purpose, the appropriate number of cells (Hela: 800; SK-MEL-3: 1000; A549: 800) were plated in 384-well plates with appropriate growth medium ((A549: DMEM/Ham's F12 (Biochrom; #FG 4815 with stabile Glutamine), FCS 10% final (Biochrom; #S 0415); Hela: DMEM/Ham's F12 (Biochrom; #FG 4815 with stabile Glutamine), FCS 10% final (Biochrom; #S 0415); SK-MEL-3: McCoy's 5A (Biochrom; #F 1015), FCS 10% final (Biochrom; #S 0415), L-Alanyl-L-Glutamine final: 2 mM, (Biochrom; #K 0302)) and incubated at 37° C. overnight. After 24 h, cells on one plate (0 h plate) were treated with 30 μl/cavity of CTG solution (Promega Cell Titer Glo (catalogue #G755B and G756B)) and incubated at room temperature for 10 min, and luminescence was measured by means of a VICTOR V (Perkin Elmer), in order to determine cell viability on commencement of treatment. The cells on the test plate were treated with the compounds of the general formula (I) as and incubated at 37° C. for 72 h. The compounds were added to the cells by means of an HP D300 digital dispenser in a 10-step 2.5-fold dilution series generally starting at a maximum final drug concentration of 100 nM. As control, the cells were treated with vehicle (DMSO at 0.3% final concentration). After 72 h, the cells were treated with 30 μl/cavity of CTG solution (Promega Cell Titer Glo (catalogue #G755B and G756B)) and incubated at room temperature for 10 min. and luminescence was measured by means of a VICTOR V (Perkin Elmer), in order to determine cell viability at the end of treatment. The percentage effect on cell growth and the IC50 derived therefrom were determined for each test substance using the values from the 0 h plate […] and the DMSO control […]. The IC50 values were calculated using a 4-parameter fit.

Assay [3] deals with human full length PDE3A (Homo sapiens (Human), UniProt Q14432). Description: Assay 4 PDE3A enzyme inhibition (3H-cAMP SPA). The following applies: Sf9 cell extract. It is filed as biochemical. On the procedure:
Assay 4 Method for PDE3A Enzyme Inhibition
(§1) The commercially available 3H-cAMP Scintillation Proximity Assay (SPA, Perkin Elmer) system was used for enzyme inhibition studies. For the determination of the in vitro effect of example compounds on the PDE3A reactions 2 μl of the respective example compound solution in DMSO (serial dilutions) were placed in wells of microtiter plates (Isoplate-96/200W; Perkin Elmer). 50 μl of a dilution of PDE3A cell extract from Sf9 cells overexpressing human full length PDE3A (SB Drug Discovery, UK) in buffer A (50 mM Tris/HCl pH 7.5, 8.3 mM MgCl2, 1.7 mM EDTA, 0.2% BSA) was added. The dilution of the PDE3A cell extract was chosen such that the reaction kinetics was linear and less than 70% of the substrate was consumed (typical dilution 1:5000). The reaction was started by addition of 50 μl (0.025 μCi) of 1:2000 in buffer A w/o BSA diluted substrate [8-3H]adenosine 3′, 5′-cyclic phosphate (1 μCi/μl; Perkin Elmer). After incubation at room temperature for 60 min, the reaction was stopped by addition of 25 μl of a suspension containing 18 mg/ml yttrium scintillation proximity beads (Perkin Elmer) in water. The microtiter plates were sealed and measured in a Microbeta scintillation counter (PerkinElmer Wallac). IC50 values were determined from sigmoidal curves by plotting percentage PDE3A activity vs log compound concentration.

The target in assay [4] is human full length PDE3B (Homo sapiens (Human), UniProt Q13370). Description: Assay 5 PDE3B enzyme inhibition (3H-cAMP SPA). It is filed as biochemical. The following applies: Sf9 cell extract. Here is the method:
as §1, with “PDE3B” for “PDE3A”, “1:6000).” for “1:5000).”

human full length PDE3A, sequence (Q14432 whole entry): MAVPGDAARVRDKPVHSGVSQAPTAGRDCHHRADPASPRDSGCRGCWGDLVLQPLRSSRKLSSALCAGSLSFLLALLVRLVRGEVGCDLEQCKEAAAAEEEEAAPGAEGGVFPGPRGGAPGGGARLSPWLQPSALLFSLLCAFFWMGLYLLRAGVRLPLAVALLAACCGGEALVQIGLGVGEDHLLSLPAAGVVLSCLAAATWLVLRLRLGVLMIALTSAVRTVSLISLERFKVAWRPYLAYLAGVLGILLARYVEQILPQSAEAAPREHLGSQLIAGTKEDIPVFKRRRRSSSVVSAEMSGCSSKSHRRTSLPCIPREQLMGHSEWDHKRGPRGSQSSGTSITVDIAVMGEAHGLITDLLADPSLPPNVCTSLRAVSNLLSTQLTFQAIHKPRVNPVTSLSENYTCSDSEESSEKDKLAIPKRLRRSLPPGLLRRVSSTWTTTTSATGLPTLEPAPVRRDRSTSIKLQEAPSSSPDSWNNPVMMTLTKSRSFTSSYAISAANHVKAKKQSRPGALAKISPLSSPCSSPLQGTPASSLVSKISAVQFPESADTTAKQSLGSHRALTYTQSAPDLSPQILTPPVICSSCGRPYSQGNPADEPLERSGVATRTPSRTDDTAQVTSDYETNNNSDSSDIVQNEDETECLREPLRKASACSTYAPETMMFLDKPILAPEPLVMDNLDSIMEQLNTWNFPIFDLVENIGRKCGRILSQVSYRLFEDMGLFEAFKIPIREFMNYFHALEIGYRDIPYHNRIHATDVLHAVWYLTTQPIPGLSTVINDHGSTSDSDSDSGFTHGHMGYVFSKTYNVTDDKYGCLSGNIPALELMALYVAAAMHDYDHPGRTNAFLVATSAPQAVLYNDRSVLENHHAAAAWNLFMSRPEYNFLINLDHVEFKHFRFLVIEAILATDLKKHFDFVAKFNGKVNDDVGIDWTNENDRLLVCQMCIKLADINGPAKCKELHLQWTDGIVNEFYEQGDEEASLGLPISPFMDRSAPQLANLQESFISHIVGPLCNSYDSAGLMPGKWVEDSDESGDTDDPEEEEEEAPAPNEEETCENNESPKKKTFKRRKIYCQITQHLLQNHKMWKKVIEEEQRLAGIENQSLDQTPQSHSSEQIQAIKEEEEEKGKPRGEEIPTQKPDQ
human full length PDE3B, sequence (Q13370 whole entry): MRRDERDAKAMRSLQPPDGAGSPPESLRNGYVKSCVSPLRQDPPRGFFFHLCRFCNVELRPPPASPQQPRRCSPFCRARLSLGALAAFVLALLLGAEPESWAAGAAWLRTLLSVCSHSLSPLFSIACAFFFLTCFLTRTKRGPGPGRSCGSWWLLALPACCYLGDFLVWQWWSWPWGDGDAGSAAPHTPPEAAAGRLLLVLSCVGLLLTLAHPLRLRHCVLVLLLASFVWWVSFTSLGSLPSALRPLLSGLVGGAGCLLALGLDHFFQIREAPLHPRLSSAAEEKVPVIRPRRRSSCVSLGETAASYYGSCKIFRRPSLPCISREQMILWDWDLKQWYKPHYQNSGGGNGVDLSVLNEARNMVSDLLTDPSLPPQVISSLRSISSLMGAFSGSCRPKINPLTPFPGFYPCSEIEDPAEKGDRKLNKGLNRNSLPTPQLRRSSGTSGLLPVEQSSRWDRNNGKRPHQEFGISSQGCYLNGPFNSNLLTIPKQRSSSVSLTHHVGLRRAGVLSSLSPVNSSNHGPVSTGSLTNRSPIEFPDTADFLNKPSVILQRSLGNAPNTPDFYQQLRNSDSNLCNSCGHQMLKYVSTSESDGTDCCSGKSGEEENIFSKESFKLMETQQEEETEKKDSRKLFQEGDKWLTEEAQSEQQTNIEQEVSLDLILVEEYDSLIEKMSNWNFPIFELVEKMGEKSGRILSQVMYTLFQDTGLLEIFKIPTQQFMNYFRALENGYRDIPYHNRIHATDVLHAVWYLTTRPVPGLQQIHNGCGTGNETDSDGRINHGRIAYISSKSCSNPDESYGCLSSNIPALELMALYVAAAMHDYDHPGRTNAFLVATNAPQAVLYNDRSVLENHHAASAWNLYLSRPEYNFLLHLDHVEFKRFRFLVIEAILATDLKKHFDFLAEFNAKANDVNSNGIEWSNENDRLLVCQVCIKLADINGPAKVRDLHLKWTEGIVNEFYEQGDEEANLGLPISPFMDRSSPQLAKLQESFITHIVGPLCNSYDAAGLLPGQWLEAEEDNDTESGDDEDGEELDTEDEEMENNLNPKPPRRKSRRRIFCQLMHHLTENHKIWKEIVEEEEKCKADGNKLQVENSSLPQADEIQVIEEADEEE

For `CCn1cc(-c2ccc(C3=NNC(=O)OC3)cc2C(F)(F)F)cn1` [Example 131, 5-[4-(1-Ethyl-1H-pyrazol-4-yl)-3-(trifluoromethyl)phenyl]-3,6-dihydro-2H-1,3,4-oxadiazin-2-one], the IC50 amounted to 2 nM in assay [1], 6 nM in assay [2], 32 nM in assay [3] and 42 nM in assay [4].
Taken in the same sequence, the figures for `O=C1NN=C(c2ccc(Cl)c(C(F)(F)F)c2)CO1` [Intermediate 64, 5-[4-Chloro-3-(trifluoromethyl)phenyl]-3,6-dihydro-2H-1,3,4-oxadiazin-2-one] were 29 nM, 53 nM, 610 nM and 490 nM.
As to `Cc1ccc(-c2ccc(C3=NNC(=O)O[C@H]3C)cc2C(F)(F)F)cn1` [Example 167, (6S)-6-Methyl-5-[4-(6-methylpyridin-3-yl)-3-(trifluoromethyl)phenyl]-3,6-dihydro-2H-1,3,4-oxadiazin-2-one], the IC50 in assay [1] was found to be 4 nM; in assay [2] it was 6 nM; in assay [3], 34 nM; in assay [4] it was 66 nM.
Taken in the same sequence, the figures for `O=C1NN=C(c2ccc(-c3cc(F)c(F)cc3F)c(F)c2)CO1` [Example 98, 5-(2,2′,4′,5′-Tetrafluoro[1,1′-biphenyl]-4-yl)-3,6-dihydro-2H-1,3,4-oxadiazin-2-one] were 5 nM, 8 nM, 100 nM and 120 nM.
The matching figures for `Nc1cc(-c2ccc(C3=NNC(=O)OC3)cc2C(F)(F)F)ccc1F` [Example 56, 5-[3′-Amino-4′-fluoro-2-(trifluoromethyl)biphenyl-4-yl]-3,6-dihydro-2H-1,3,4-oxadiazin-2-one]: 5 nM, 10 nM, 180 nM and 80 nM.
The matching figures for `CC(C)(O)CCNc1ccc(C2=NNC(=O)OC2)cc1C(F)(F)F` [Example 319, 5-{4-[(3-hydroxy-3-methylbutyl)amino]-3-(trifluoromethyl)phenyl}-3,6-dihydro-2H-1,3,4-oxadiazin-2-one]: 61 nM, greater than 100 nM, 70 nM and 180 nM.
Turning to `O=C1NN=C(c2ccc(-c3ccc(F)cc3Cl)c(F)c2)CO1` [Example 82, 5-(2′-Chloro-2,4′-difluorobiphenyl-4-yl)-3,6-dihydro-2H-1,3,4-oxadiazin-2-one], the IC50 in assay [1] was 4 nM; in assay [2] it was 9 nM; in assay [3], 200 nM; in assay [4], 320 nM.
With `CCc1ccccc1-c1ccc(C2=NNC(=O)OC2)cc1F` [Example 84, 5-(2′-Ethyl-2-fluorobiphenyl-4-yl)-3,6-dihydro-2H-1,3,4-oxadiazin-2-one], the IC50 in assay [1] came out at 19 nM; in assay [2], 48 nM; in assay [3] it was 150 nM; in assay [4] it was 320 nM.
Take `CCc1ccccc1-c1ccc(C2=NNC(=O)O[C@H]2C)cc1C(F)(F)F` [Example 186, (6S)-5-[2′-Ethyl-2-(trifluoromethyl)[1,1′-biphenyl]-4-yl]-6-methyl-3,6-dihydro-2H-1,3,4-oxadiazin-2-one]: the IC50 in assay [1] was found to be 61 nM; in assay [2] it was 71 nM.
The matching figures for `Cc1cc(C2=NNC(=O)OC2)ccc1-c1cccnc1` [Example 13, 5-[3-Methyl-4-(pyridin-3-yl)phenyl]-3,6-dihydro-2H-1,3,4-oxadiazin-2-one]: 27 nM and 82 nM.
The matching figures for `Nc1ncc(-c2ccc(C3=NNC(=O)OC3)cc2F)cn1` [Example 330, 5-[4-(2-aminopyrimidin-5-yl)-3-fluorophenyl]-3,6-dihydro-2H-1,3,4-oxadiazin-2-one]: greater than 100 nM and greater than 100 nM.
Consider `CC[C@@H](CO)Nc1ccc(C2=NNC(=O)OC2)cc1C(F)(F)F` [Example 228, 5-[4-{[(2S)-1-Hydroxybutan-2-yl]amino}-3-(trifluoromethyl)phenyl]-3,6-dihydro-2H-1,3,4-oxadiazin-2-one], for which the IC50 in assay [1] was found to be 7 nM; in assay [3], 400 nM; in assay [4] it was 920 nM.
With `O=C1CCC(CNc2ccc(C3=NNC(=O)OC3)cc2C(F)(F)F)CN1` (racemic) [Example 247, (rac)-5-[4-{[(6-Oxopiperidin-3-yl)methyl]amino}-3-(trifluoromethyl)phenyl]-3,6-dihydro-2H-1,3,4-oxadiazin-2-one], the IC50 in assay [1] was determined as 10 nM; in assay [3], 65 nM; in assay [4] it was 180 nM.
As for `O=C1NN=C(c2ccc(NCC3CCOC3)c(C(F)(F)F)c2)CO1` (racemic) [Example 245, (rac)-5-[4-{[(Oxolan-3-yl)methyl]amino}-3-(trifluoromethyl)phenyl]-3,6-dihydro-2H-1,3,4-oxadiazin-2-one], the IC50 in assay [1] was determined as 3 nM; in assay [3] it was 75 nM; in assay [4] it was 100 nM.
The matching figures for `O=C1NN=C(c2ccc(N3CC[C@H]3CO)c(C(F)(F)F)c2)CO1` [Example 250, 5-{4-[(2S)-2-(Hydroxymethyl)azetidin-1-yl]-3-(trifluoromethyl)phenyl}-3,6-dihydro-2H-1,3,4-oxadiazin-2-one]: 2 nM, 120 nM and 120 nM.
The matching figures for `O=C1NN=C(c2ccc(N3CC[C@H](O)C3)c(C(F)(F)F)c2)CO1` [Example 234, 5-{4-[(3S)-3-Hydroxypyrrolidin-1-yl]-3-(trifluoromethyl)phenyl}-3,6-dihydro-2H-1,3,4-oxadiazin-2-one]: 2 nM, 78 nM and 73 nM.
Taken in the same sequence, the figures for `O=C1NN=C(c2ccc(NCc3cc[nH]n3)c(C(F)(F)F)c2)CO1` [Example 237, 5-[4-{[(1H-Pyrazol-3-yl)methyl]amino}-3-(trifluoromethyl)phenyl]-3,6-dihydro-2H-1,3,4-oxadiazin-2-one] were 0.4 nM, 120 nM and 140 nM.

For the origin of these results see patent US11427553B2, “Dihydrooxadiazinones” (Bayer Aktiengesellschaft, priority 2017, dated 2022).
